Assay results taken from patent US4720489A, “Hair growth modification with ornithine decarboxylase inhibitors” (priority 1984, dated 1988).

Legend:
[1] = tested on: brain 4-aminobutyric acid levels; conditions: transformation catalyzed by mitochondrial monoamine oxidase; known secondary pharmacological effect; cited from earlier work
[2] = tested on: flank organ hair mass in adult intact male hamsters; test: efficacy of topical compositions in reducing flank organ hair mass in adult intact male hamsters (Tables I and II); type: in vivo, hamster; conditions: 15 days (Mon-Fri) in 21-day interval, versus vehicle controls
Protocol: Summarized below in Tables I and II are the results of two experiments comparing the efficacy of several compositions in reducing the flank organ hair mass in adult intact male hamsters. In each case, hamsters were treated for 15 days (Monday-Friday) during a 21-day interval. Flank organ hairs were epilated on the first day of treatment and re-epilated on the sixth day of treatment. […] The results for percent inhibition shown below are based upon comparisons between the hair mass values of hairs harvested from treated flank organs of experimental animals and those obtained from vehicle-treated control animals.

Flank Organ Hair Mass = test: similar series of experiments comparing a variety of compositions, flank organ hair mass (Table III); type: in vivo, hamster; parameters: Flank Organ Hair Mass, Untreated / Flank Organ Hair Mass, Treated: unit not given here
Protocol: Additional experiments were conducted to test topical regimens composed of a combination of 2(difluoromethyl)-2,5-diaminopentanoic acid along with antiandrogens. […] In each case, hamsters were treated for 15 days (Monday-Friday) during a 21-day interval. Flank organ hairs were epilated on the first day of treatment and re-epilated on the sixth day of treatment. The mass of flank organ hair represents the regrowth during the final 14 days of the 21-day interval.

[3] = tested on: ornithine decarboxylase (ODC), flank organ; test: flank organ ODC activity after topical application for 21 consecutive days; type: in vivo, hamster; conditions: 500 micrograms in 10 microliters 70% ethanol, versus hamsters castrated for 21 days
[4] = tested on: androgen-mediated hair growth in male hamsters (flank organ hair mass); test: inhibition of androgen-mediated hair growth in male hamsters following topical application for 21 consecutive days (flank organ hair mass); type: in vivo, hamster; conditions: 500 micrograms in 10 microliters 70% ethanol, regrowth during final ten days
Protocol: Five hundred micrograms of the compound in ten microliters of 70% ethanol was applied topically for 21 consecutive days. Hair mass changes were determined by comparing the regrowth of hair during the final ten days of treatment. […] Furthermore, the magnitude of hair mass inhibition in the hamsters treated with the ODC inhibitor (60%) approached that observed in 21-day castrated hamsters (78%).

[5] = 5 micrograms per square centimeter
[6] = 50 micrograms per square centimeter
[7] = 250 micrograms per square centimeter
[8] = 500 micrograms per square centimeter
[9] = Table II, 500 micrograms per square centimeter

Q: For `C#CC(N)CCCN` (stereo not shown) [5-hexyne-1,4-diamine], which “brain 4-aminobutyric acid levels” value [1] is on record?
A: The value was “increases in brain 4-aminobutyric acid levels”.

Q: For `CC(=O)[C@H]1CC[C@H]2[C@@H]3CCC4=CC(=O)CC[C@]4(C)[C@H]3CC[C@]12C` [Progesterone, progesterone], which “% Inhibition (flank organ hair mass)” value ([2]; Table I, 1000 micrograms per square centimeter) is on record?
A: Its value is 50%.

Q: With `NCCCC(N)(C(=O)O)C(F)F` (stereo not shown) [2(difluoromethyl)-2,5-diaminopentanoic acid] as the compound, how does the “% Inhibition (flank organ hair mass)” value (Flank Organ Hair Mass; [5]) read?
A: The value was 2%.

Q: What about the “% Inhibition (flank organ hair mass)” value (Flank Organ Hair Mass; [6]) of the same compound?
A: The value was 7%.

Q: And the “% Inhibition (flank organ hair mass)” value (Flank Organ Hair Mass; [7])?
A: Its value is 24%.

Q: And the “% Inhibition (flank organ hair mass)” value (Flank Organ Hair Mass; [8])?
A: The value was 33%.

Q: And the “Flank Organ Hair Mass, Treated” value (Flank Organ Hair Mass; [5])?
A: The value was 3.20.

Q: What about the “Flank Organ Hair Mass, Treated” value (Flank Organ Hair Mass; [6]) of the same compound?
A: Its value is 2.85.

Q: And the “Flank Organ Hair Mass, Treated” value (Flank Organ Hair Mass; [7])?
A: The value was 2.29.

Q: What about the “Flank Organ Hair Mass, Treated” value (Flank Organ Hair Mass; [8]) of the same compound?
A: The value was 1.81.

Q: What about the “Flank Organ Hair Mass, Untreated” value (Flank Organ Hair Mass; treatment group 5 micrograms per square centimeter) of the same compound?
A: Its value is 3.26.

Q: What about the “Flank Organ Hair Mass, Untreated” value (Flank Organ Hair Mass; treatment group 50 micrograms per square centimeter) of the same compound?
A: The value was 3.05.

Q: And the “Flank Organ Hair Mass, Untreated” value (Flank Organ Hair Mass; treatment group 250 micrograms per square centimeter)?
A: Its value is 3.00.

Q: And the “Flank Organ Hair Mass, Untreated” value (Flank Organ Hair Mass; treatment group 500 micrograms per square centimeter)?
A: The value was 2.71.

Q: What about the “% Inhibition (flank organ hair mass)” value ([2]; Table I, 500 micrograms per square centimeter) of the same compound?
A: The value was 46%.

Q: And the “% Inhibition (flank organ hair mass)” value [2, 9]?
A: Its value is 41%.

Q: And the “flank organ ODC activity” value [3]?
A: Its value is “reduced to levels found in hamsters castrated for 21 days”.

Q: And the “magnitude of hair mass inhibition” value [4]?
A: Its value is 60%.

Q: For `CC(=O)O[C@]1(C(C)=O)CC[C@H]2[C@@H]3C=C(Cl)C4=CC(=O)CC[C@]4(C)[C@H]3CC[C@@]21C` [Chloromadinone acetate, chlormadinone acetate], which “% Inhibition (flank organ hair mass)” value [2, 9] is on record?
A: Its value is 41%.
